# Data: US5665704A, “Receptor specific atrial natriuretic peptides” (Genentech, Inc., priority 1995, dated 1997)
# Bridge positions count the residues as written; N and C are the ends. Square brackets hold non-standard residues; d marks the D form. Peptide text beside a SMILES is read from it. Cha = N[C@@H](CC1CCCCC1)C(=O)O; Mpa = O=C(O)CCS
# How the values were obtained:
# [1] = molecular target: T1, hNPR-C (Homo sapiens, UniProt P17342); assay: Binding affinity for clearance receptor hNPR-C; details: Table I; read-out: Binding Affinity IC50 (pM) hNPR-C
# T1 sequence (P17342 27-541): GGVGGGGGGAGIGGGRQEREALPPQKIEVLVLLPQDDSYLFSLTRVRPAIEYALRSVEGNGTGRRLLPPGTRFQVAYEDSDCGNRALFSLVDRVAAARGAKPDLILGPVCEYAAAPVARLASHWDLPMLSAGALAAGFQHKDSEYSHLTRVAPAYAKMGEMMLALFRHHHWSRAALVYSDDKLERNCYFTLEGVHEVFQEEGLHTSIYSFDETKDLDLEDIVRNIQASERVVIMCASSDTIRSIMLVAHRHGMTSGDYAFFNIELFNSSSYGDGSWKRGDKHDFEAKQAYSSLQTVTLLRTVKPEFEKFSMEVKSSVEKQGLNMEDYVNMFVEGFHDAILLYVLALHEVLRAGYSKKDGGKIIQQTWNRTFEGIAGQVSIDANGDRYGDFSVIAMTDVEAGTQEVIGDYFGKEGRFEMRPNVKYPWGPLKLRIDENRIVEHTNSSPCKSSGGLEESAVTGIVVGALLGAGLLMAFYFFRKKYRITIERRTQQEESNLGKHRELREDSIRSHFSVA
# Excerpt: For assay systems to measure binding of hANF and the compounds of this invention to hNPR-C see: Schank, D. B., et al., Biochem. Biophys. Res. Comm. 127:433-442 (1985); Scarborough, R. M., J. Biol. Chem. 261:12960-12964 and WO 90/01940.
# [2] = molecular target: T2, hNPR-A (Homo sapiens, UniProt P16066); assay: Binding affinity for hNPR-A (competitive displacement of I^125 labeled wild-type ANF); details: Table I; read-out: Binding Affinity IC50 (pM) hNPR-A
# T2 sequence (P16066 33-1061): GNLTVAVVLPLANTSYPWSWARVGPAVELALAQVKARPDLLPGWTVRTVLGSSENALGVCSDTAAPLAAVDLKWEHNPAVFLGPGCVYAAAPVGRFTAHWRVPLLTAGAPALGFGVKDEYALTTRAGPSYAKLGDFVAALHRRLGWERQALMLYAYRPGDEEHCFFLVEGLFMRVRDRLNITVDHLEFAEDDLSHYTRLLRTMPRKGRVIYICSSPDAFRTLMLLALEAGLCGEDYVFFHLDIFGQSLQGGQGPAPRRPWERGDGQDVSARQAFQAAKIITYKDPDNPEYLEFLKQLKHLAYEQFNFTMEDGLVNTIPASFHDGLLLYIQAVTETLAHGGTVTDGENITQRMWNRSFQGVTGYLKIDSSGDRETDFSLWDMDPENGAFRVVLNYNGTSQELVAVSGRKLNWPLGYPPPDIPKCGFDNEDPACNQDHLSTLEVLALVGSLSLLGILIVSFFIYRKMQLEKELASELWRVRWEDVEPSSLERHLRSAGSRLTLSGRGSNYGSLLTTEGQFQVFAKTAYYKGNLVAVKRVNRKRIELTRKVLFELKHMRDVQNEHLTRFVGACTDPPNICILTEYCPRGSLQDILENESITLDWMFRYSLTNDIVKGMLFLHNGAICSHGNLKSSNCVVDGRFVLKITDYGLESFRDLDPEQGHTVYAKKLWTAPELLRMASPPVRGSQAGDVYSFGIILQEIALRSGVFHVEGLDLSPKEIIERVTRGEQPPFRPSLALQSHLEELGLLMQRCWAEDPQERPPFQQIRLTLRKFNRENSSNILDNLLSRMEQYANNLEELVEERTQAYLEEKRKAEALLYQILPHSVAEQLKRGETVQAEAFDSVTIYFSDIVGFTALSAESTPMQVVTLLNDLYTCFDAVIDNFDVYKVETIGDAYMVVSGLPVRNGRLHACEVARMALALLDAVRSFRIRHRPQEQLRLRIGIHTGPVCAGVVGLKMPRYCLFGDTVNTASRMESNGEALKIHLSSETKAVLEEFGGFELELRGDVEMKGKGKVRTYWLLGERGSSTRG
Compound,IC50 [1] [pM],IC50 [2] [pM]
CC[C@H](C)[C@@H]1NC(=O)[C@H](CCCNC(=N)N)NC(=O)[C@H](CC(=O)O)NC(=O)[C@H]([C@@H](C)CC)NC(=O)[C@H](CO)NC(=O)CNC(=O)[C@H]([C@@H](C)O)NC(=O)[C@H](Cc2ccccc2)NC(=O)[C@@H](CO)NC(=O)[C@@H](NC(=O)[C@H](CO)NC(=O)[C@H](CO)NC(=O)[C@H](CCCNC(=N)N)NC(=O)[C@H](CCCNC(=N)N)NC(=O)[C@H](CC(C)C)NC(=O)[C@@H](N)CO)CSSC[C@@H](C(=O)N[C@@H](CC(N)=O)C(=O)N[C@@H](CO)C(=O)N[C@@H](Cc2ccccc2)C(=O)N[C@@H](CCCNC(=N)N)C(=O)N[C@@H](Cc2ccc(O)cc2)C(=O)O)NC(=O)CNC(=O)[C@H](CC(C)C)NC(=O)CNC(=O)[C@H](CO)NC(=O)[C@H](CCC(N)=O)NC(=O)[C@H](C)NC(=O)[C@H](CCCNC(=N)N)NC1=O [ANF74] (H-SLRRSSC[dS]FTGSIDRIRAQSGLGCNSFRY-OH; disulfide 7-24),1e+07,29400
CC[C@H](C)[C@@H]1NC(=O)[C@H](CCCNC(=N)N)NC(=O)[C@H](CC(=O)O)NC(=O)[C@H]([C@@H](C)CC)NC(=O)[C@H](CO)NC(=O)CNC(=O)[C@H]([C@@H](C)O)NC(=O)[C@H](Cc2ccccc2)NC(=O)[C@@H](C)NC(=O)[C@@H](NC(=O)[C@H](CO)NC(=O)[C@H](CO)NC(=O)[C@H](CCCNC(=N)N)NC(=O)[C@H](CCCNC(=N)N)NC(=O)[C@H](CC(C)C)NC(=O)[C@@H](N)CO)CSSC[C@@H](C(=O)N[C@@H](CC(N)=O)C(=O)N[C@@H](CO)C(=O)N[C@@H](Cc2ccccc2)C(=O)N[C@@H](CCCNC(=N)N)C(=O)N[C@@H](Cc2ccc(O)cc2)C(=O)O)NC(=O)CNC(=O)[C@H](CC(C)C)NC(=O)CNC(=O)[C@H](CO)NC(=O)[C@H](CCC(N)=O)NC(=O)[C@H](C)NC(=O)[C@H](CCCNC(=N)N)NC1=O [ANF75] (H-SLRRSSC[dA]FTGSIDRIRAQSGLGCNSFRY-OH; disulfide 7-24),2e+06,2080
CC[C@H](C)[C@@H]1NC(=O)[C@H](CCCNC(=N)N)NC(=O)[C@H](CC(=O)O)NC(=O)[C@H]([C@@H](C)CC)NC(=O)[C@H](CO)NC(=O)CNC(=O)[C@H]([C@@H](C)O)NC(=O)[C@H](CC2CCCCC2)NC(=O)[C@@H](NC(=O)[C@H](CO)NC(=O)[C@H](CO)NC(=O)[C@H](CCCNC(=N)N)NC(=O)[C@H](CCCNC(=N)N)NC(=O)[C@H](CC(C)C)NC(=O)[C@@H](N)CO)CSSC[C@@H](C(=O)N[C@@H](CC(N)=O)C(=O)N[C@@H](CO)C(=O)N[C@@H](Cc2ccccc2)C(=O)N[C@@H](CCCNC(=N)N)C(=O)N[C@@H](Cc2ccc(O)cc2)C(=O)O)NC(=O)CNC(=O)[C@H](CC(C)C)NC(=O)CNC(=O)[C@H](CO)NC(=O)[C@H](CCC(N)=O)NC(=O)[C@H](C)NC(=O)[C@H](CCCNC(=N)N)NC1=O [ANF79] (H-SLRRSSC[Cha]TGSIDRIRAQSGLGCNSFRY-OH; disulfide 7-23),1.48e+06,2.4
CC[C@H](C)[C@@H]1NC(=O)[C@H](CCCNC(=N)N)NC(=O)[C@H](CC(=O)O)NC(=O)[C@H]([C@@H](C)CC)NC(=O)[C@H](CO)NC(=O)CNC(=O)[C@@H]([C@H](C)O)NC(=O)[C@H](Cc2ccccc2)NC(=O)CCSSC[C@@H](C(=O)N[C@@H](CC(N)=O)C(=O)N[C@@H](CO)C(=O)N[C@@H](Cc2ccccc2)C(=O)N[C@@H](CCCNC(=N)N)C(=O)N[C@@H](Cc2ccc(O)cc2)C(=O)O)NC(=O)CNC(=O)[C@H](CC(C)C)NC(=O)CNC(=O)[C@H](CO)NC(=O)[C@H](CCC(N)=O)NC(=O)[C@H](C)NC(=O)[C@H](CCCNC(=N)N)NC1=O [ANF80] ([Mpa]F[dT]GSIDRIRAQSGLGCNSFRY-OH; disulfide 1-17),739000,423
CC[C@H](C)[C@@H]1NC(=O)[C@H](CCCNC(=N)N)NC(=O)[C@H](CC(=O)O)NC(=O)[C@H]([C@@H](C)CC)NC(=O)[C@H](CO)NC(=O)CNC(=O)[C@@H](C)NC(=O)[C@H](Cc2ccccc2)NC(=O)CCSSC[C@@H](C(=O)N[C@@H](CC(N)=O)C(=O)N[C@@H](CO)C(=O)N[C@@H](Cc2ccccc2)C(=O)N[C@@H](CCCNC(=N)N)C(=O)N[C@@H](Cc2ccc(O)cc2)C(=O)O)NC(=O)CNC(=O)[C@H](CC(C)C)NC(=O)CNC(=O)[C@H](CO)NC(=O)[C@H](CCC(N)=O)NC(=O)[C@H](C)NC(=O)[C@H](CCCNC(=N)N)NC1=O [ANF81] ([Mpa]F[dA]GSIDRIRAQSGLGCNSFRY-OH; disulfide 1-17),3.86e+06,1400
CC[C@H](C)[C@@H]1NC(=O)[C@H](CCCNC(=N)N)NC(=O)[C@H](CC(=O)O)NC(=O)[C@H]([C@@H](C)CC)NC(=O)[C@H](CO)NC(=O)CNC(=O)[C@H]([C@@H](C)O)NC(=O)[C@H](Cc2ccccc2)N(C)C(=O)[C@@H](NC(=O)[C@H](CO)NC(=O)[C@H](CO)NC(=O)[C@H](CCCNC(=N)N)NC(=O)[C@H](CCCNC(=N)N)NC(=O)[C@H](CC(C)C)NC(=O)[C@@H](N)CO)CSSC[C@@H](C(=O)N[C@@H](CC(N)=O)C(=O)N[C@@H](CO)C(=O)N[C@@H](Cc2ccccc2)C(=O)N[C@@H](CCCNC(=N)N)C(=O)N[C@@H](Cc2ccc(O)cc2)C(=O)O)NC(=O)CNC(=O)[C@H](CC(C)C)NC(=O)CNC(=O)[C@H](CO)NC(=O)[C@H](CCC(N)=O)NC(=O)[C@H](C)NC(=O)[C@H](CCCNC(=N)N)NC1=O [ANF83],3.44e+06,16
CC[C@H](C)[C@@H]1NC(=O)[C@H](CCCNC(=N)N)NC(=O)[C@H](CC(=O)O)NC(=O)[C@H]([C@@H](C)CC)NC(=O)[C@H](CO)NC(=O)CNC(=O)[C@H]([C@@H](C)O)NC(=O)[C@H](Cc2ccccc2)NC[C@@H](NC(=O)[C@H](CO)NC(=O)[C@H](CO)NC(=O)[C@H](CCCNC(=N)N)NC(=O)[C@H](CCCNC(=N)N)NC(=O)[C@H](CC(C)C)NC(=O)[C@@H](N)CO)CSSC[C@@H](C(=O)N[C@@H](CC(N)=O)C(=O)N[C@@H](CO)C(=O)N[C@@H](Cc2ccccc2)C(=O)N[C@@H](CCCNC(=N)N)C(=O)N[C@@H](Cc2ccc(O)cc2)C(=O)O)NC(=O)CNC(=O)[C@H](CC(C)C)NC(=O)CNC(=O)[C@H](CO)NC(=O)[C@H](CCC(N)=O)NC(=O)[C@H](C)NC(=O)[C@H](CCCNC(=N)N)NC1=O [ANF84],1.9e+07,21
CC[C@H](C)[C@@H]1NC(=O)[C@H](CCCNC(=N)N)NC(=O)[C@H](CC(=O)O)NC(=O)[C@H]([C@@H](C)CC)NC(=O)[C@H](CC(=O)O)NC(=O)CNC(=O)[C@@H](C)NC(=O)[C@H](Cc2ccccc2)NC(=O)[C@@H](NC(=O)[C@H](CO)NC(=O)[C@H](CO)NC(=O)[C@H](CCCNC(=N)N)NC(=O)[C@H](CCCNC(=N)N)NC(=O)[C@H](CC(C)C)NC(=O)[C@@H](N)CO)CSSC[C@@H](C(=O)N[C@@H](CC(N)=O)C(=O)N[C@@H](CO)C(=O)N[C@@H](Cc2ccccc2)C(=O)N[C@@H](CCCNC(=N)N)C(=O)N[C@@H](Cc2ccc(O)cc2)C(=O)O)NC(=O)CNC(=O)[C@H](CC(C)C)NC(=O)CNC(=O)[C@H](CO)NC(=O)[C@H](CCC(N)=O)NC(=O)[C@H](C)NC(=O)[C@H](CCCNC(=N)N)NC1=O [ANF90] (H-SLRRSSCF[dA]GDIDRIRAQSGLGCNSFRY-OH; disulfide 7-23),6.14e+06,1200
